Assay results taken from ChEMBL document CHEMBL5465560, “Selectivity Literature for EUbOPEN Chemogenomic Library” (2024).
One block for each compound: values may come before it.

Experiments:
[1] = target: Tyrosine-protein kinase receptor UFO (Homo sapiens) (UniProt P30530); test: Selectivity interaction (ActivX KiNativ screen (kinase selectivity in THP-1 cell lysates)) EUB0000639a AXL; type: subcellular; conditions: lysate
[2] = target: T1, Inhibitor of nuclear factor kappa-B kinase subunit epsilon (Homo sapiens) (UniProt Q14164); test: Selectivity interaction (KinomeScan (DiscoverX)) EUB0000595a IKBKE; conditions: at 10 µM
T1 sequence (whole entry): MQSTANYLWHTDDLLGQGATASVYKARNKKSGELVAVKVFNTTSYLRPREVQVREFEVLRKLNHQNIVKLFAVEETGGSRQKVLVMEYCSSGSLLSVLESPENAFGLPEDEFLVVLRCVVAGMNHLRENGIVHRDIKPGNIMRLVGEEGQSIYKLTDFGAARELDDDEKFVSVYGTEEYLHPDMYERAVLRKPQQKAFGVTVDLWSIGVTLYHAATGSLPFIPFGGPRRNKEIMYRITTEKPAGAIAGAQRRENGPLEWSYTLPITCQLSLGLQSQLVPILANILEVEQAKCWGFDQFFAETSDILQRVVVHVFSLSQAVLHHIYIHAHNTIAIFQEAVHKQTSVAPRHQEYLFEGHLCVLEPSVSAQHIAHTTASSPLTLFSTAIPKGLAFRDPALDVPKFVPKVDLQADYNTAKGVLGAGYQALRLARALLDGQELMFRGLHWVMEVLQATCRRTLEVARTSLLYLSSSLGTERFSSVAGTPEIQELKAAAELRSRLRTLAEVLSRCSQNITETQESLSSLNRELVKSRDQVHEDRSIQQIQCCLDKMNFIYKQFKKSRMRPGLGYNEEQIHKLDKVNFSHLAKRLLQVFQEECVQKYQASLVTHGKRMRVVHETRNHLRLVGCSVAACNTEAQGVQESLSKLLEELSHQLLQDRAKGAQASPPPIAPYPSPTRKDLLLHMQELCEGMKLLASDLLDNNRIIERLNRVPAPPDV

[3] = target: T2, Dual serine/threonine and tyrosine protein kinase (Homo sapiens) (UniProt Q6XUX3); test: Selectivity interaction (KinomeScan (DiscoverX)) EUB0000655a DSTYK; conditions: at 10 µM
T2 sequence (whole entry): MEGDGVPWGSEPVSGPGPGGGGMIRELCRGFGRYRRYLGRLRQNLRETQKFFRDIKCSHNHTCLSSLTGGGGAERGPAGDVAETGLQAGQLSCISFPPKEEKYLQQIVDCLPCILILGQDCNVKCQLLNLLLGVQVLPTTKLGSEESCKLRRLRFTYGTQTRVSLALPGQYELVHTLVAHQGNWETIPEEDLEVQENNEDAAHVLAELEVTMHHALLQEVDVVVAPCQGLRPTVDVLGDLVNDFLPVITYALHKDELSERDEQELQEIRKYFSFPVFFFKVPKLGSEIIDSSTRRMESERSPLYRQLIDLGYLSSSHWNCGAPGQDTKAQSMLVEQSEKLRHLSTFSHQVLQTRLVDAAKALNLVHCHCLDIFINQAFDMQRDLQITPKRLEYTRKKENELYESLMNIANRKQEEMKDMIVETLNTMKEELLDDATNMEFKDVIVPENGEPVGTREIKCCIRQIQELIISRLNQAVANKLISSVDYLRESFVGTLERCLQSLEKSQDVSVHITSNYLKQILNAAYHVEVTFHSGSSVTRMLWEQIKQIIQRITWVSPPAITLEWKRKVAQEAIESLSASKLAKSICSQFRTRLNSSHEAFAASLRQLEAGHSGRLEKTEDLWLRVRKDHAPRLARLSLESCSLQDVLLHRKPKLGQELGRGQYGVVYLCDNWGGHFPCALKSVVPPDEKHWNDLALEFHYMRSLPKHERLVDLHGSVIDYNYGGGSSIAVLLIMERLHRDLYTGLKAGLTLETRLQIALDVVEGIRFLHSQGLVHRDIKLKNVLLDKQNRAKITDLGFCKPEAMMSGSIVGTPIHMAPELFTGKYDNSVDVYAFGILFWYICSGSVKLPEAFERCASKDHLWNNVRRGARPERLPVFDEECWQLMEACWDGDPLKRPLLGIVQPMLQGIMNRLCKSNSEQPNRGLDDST

[4] = target: 5'-AMP-activated protein kinase catalytic subunit alpha-2 (Homo sapiens) (UniProt P54646); test: Selectivity interaction (KinomeScan (DiscoverX)) EUB0001619a PRKAA2; conditions: at 1 µM
[5] = target: Serine/threonine-protein kinase Chk2 (Homo sapiens) (UniProt O96017); test: Selectivity interaction (Kinase panel (DSF assay)) EUB0001559a CHEK2
[6] = target: Mitogen-activated protein kinase 1 (Homo sapiens, UniProt P28482); test: Selectivity interaction (Kinase panel (DSF assay)) EUB0001558a MAPK1
Mitogen-activated protein kinase 1, sequence (P28482 whole entry): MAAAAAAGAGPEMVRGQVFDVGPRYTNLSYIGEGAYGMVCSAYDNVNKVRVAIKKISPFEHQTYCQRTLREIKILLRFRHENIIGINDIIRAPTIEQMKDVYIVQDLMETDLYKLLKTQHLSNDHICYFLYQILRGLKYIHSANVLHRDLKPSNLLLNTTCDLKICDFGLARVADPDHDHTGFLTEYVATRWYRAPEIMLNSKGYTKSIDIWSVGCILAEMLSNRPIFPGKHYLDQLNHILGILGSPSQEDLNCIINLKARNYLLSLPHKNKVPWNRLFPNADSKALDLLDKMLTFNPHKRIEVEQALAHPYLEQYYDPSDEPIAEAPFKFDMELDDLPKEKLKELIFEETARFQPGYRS

Tyrosine-protein kinase receptor UFO (Homo sapiens), sequence (P30530 whole entry): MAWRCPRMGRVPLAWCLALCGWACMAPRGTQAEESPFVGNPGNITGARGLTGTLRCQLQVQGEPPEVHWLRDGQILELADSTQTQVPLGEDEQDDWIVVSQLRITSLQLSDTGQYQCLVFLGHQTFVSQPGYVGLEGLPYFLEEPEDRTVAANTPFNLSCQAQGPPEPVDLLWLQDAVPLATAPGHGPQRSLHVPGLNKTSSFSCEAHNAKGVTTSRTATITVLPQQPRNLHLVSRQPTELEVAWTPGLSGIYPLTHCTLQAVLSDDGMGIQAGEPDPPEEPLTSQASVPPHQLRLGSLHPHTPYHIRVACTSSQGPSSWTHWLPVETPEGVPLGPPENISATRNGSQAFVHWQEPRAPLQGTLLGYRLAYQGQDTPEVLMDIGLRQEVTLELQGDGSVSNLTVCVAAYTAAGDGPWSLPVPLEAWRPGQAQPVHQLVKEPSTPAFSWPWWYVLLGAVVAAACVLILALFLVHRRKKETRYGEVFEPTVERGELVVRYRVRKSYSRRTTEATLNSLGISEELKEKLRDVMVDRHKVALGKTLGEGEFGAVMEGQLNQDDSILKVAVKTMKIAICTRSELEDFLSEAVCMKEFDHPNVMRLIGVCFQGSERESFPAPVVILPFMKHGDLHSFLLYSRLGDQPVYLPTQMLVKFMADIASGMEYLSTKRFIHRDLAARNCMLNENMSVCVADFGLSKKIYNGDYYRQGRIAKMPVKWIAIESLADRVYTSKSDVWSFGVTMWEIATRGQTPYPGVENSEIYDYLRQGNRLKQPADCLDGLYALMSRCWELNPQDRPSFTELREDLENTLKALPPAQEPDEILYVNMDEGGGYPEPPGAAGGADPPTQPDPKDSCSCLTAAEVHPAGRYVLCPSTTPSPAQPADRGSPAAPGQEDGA
Serine/threonine-protein kinase Chk2 (Homo sapiens), sequence (O96017 whole entry): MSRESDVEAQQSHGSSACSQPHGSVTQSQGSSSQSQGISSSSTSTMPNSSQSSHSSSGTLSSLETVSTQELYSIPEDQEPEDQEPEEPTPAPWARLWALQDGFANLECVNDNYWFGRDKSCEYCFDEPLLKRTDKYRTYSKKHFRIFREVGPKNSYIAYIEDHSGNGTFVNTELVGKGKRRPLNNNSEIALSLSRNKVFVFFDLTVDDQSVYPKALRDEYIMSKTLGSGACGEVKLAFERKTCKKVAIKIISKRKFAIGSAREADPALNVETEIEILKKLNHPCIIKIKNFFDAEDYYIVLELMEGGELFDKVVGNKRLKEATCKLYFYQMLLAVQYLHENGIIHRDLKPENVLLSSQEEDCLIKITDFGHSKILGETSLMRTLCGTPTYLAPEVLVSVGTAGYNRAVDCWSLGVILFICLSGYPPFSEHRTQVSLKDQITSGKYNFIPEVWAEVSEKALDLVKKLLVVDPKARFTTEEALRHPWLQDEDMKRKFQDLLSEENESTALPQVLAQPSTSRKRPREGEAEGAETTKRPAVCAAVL
5'-AMP-activated protein kinase catalytic subunit alpha-2 (Homo sapiens), sequence (P54646 whole entry, looked up): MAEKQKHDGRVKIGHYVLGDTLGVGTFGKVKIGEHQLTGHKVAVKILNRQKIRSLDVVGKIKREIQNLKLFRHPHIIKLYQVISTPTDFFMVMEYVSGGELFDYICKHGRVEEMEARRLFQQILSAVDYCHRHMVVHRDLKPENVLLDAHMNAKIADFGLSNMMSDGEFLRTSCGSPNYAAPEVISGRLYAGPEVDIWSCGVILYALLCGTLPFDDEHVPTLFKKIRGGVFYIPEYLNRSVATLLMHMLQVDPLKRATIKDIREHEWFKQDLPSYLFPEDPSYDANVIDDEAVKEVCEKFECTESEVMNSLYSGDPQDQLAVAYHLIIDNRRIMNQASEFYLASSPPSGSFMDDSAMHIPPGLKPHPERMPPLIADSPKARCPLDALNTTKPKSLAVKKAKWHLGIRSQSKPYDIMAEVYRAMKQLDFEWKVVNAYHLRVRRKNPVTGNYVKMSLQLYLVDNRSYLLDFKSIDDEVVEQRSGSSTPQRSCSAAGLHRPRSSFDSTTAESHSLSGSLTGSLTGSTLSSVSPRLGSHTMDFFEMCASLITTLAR

% of inhibition ([1]; at 0.01 µM): 0.7% | % of inhibition ([1]; at 0.04 µM): -4.1% | % of inhibition ([1]; at 0.2 µM): 7.8% | % of inhibition ([1]; at 1 µM): 27.6% | % of inhibition ([1]; at 5 µM): 63.2%
SMILES: CC[C@@H]1[C@H](F)C(=O)N[C@@H]1COc1nccc2cc(C(N)=O)c(OC)cc12 [ZIMLOVISERTIB]

SMILES: COCC(=O)NC/C=C/c1ccc2ncnc(Nc3ccc(Oc4ccc(C)nc4)c(C)c3)c2c1 [CP-724714]
% of control [2]: 100%

SMILES: CN(C)CCOc1ccc(-c2nc(-c3ccncc3)c(-c3ccc4c(c3)CC/C4=N\O)[nH]2)cc1
% of control [3]: 83%

SMILES: N#Cc1cccc(-c2c[nH]c3ncnc(N4CCOCC4)c23)c1
% of control [4]: 22%

dTM [5]: 0.2 K
SMILES: CN(C(=O)c1cnn2cccnc12)c1cc2c(cc1N1CCOCC1)C(=O)N(C[C@@H](F)C(C)(C)O)C2

SMILES: CC(C)(O)[C@H](F)CN1Cc2cc(NC(=O)c3cnn4cccnc34)c(N3CCOCC3)cc2C1=O
dTM [6]: 0.4 K
